Results: patent US8232289B2, “Spiropiperidine compounds as ORL-1 receptor antagonists” (Eli Lilly and Company, priority 2009, dated 2012)
Like-named read-outs stand apart in the source and are kept apart here.

Legend:
[1] = target: Ca+2 channel (diltiazem site); test: Radioligand binding selectivity, Ca+2 channel (diltiazem site)
Source text: (§1) Similarly, Ki for the mu, kappa and delta opioids, serotonin, dopamine, adrenergic, mucarinic, and histamine receptors, as well as binding to the norepinephrine transporter, sodium channel, chloride channel, and calcium channel may be determined using membranes expressing the desired receptor/transporter/channels and appropriate corresponding radioligand competitor molecules.

Adrenergic Alpha2 = test: Radioligand binding selectivity, Adrenergic Alpha2
Source text: as §1

Adrenergic Beta1 = Adrenergic Beta1 (Homo sapiens, UniProt P08588); test: Radioligand binding selectivity, Adrenergic Beta1
Source text: as §1

5-HT7 = 5-HT7 (Homo sapiens, UniProt P34969); test: Radioligand binding selectivity, 5-HT7
Source text: as §1

[2] = test system: 129S6 wild type and nociceptin/ORL1 receptor knockout mice; test: mFST in wild type and ORL-1 knockout mice; type: in vivo
Source text: mFST is an established in vivo assay for antidepressant activity (Li et al. J Pharmacol Exp Ther. 319(1):254-9, 2006.). […] The mFST was used to evaluate potential antidepressant-like activity of novel nociceptin/ORL1 antagonists according to previously published methods (Li et al. J Pharmacol Exp Ther. 319(1):254-9, 2006.). Briefly, male NIH-Swiss mice (Harlan Sprague-Dawley, Indianapolis, Ind.) weighing between 25-30 g are used. Group housed animals are removed from the vivarium to the testing area in their own cages and allowed to adapt to the new environment for at least 1 hour before testing. Alternatively, male 129S6 wild type and nociceptin/ORL1 receptor knockout mice were used to confirm dependence of the response to compound was nociceptin/ORL1 receptor dependent. All compounds are prepared in 20% Captisol, 25 mM phosphate buffer, pH 2.0 on the day of use. Mice are placed in a cylinder (diameter: 10 cm; height: 25 cm) filled with 6 cm of water (22-25° C.) for 6 min. The duration of immobility during the last 4 min. of the 6 min. period of the test was scored. A mouse is recorded as immobile when floating motionless or making only those movements necessary to keep its head above water.
Yet further, these effects of reduced immobilization times are not observed when ORL-1 knockout mice, a strain of mice engineered to lack the ORL-1 receptor, are used, showing that the effect is indeed mediated by the ORL-1 receptor.

Na+ channel = test: Radioligand binding selectivity, Na+ channel
Source text: as §1

[3] = target: T1, cloned human ORL1/nociceptin receptors (Homo sapiens, UniProt P41146); test: Functional blockade of agonist-mediated G-protein activation, GTP-γ-[35S] binding; type: biochemical
T1 construct: expressed in transfected cells
Source text: Agonist-mediated stimulation of G-protein coupled receptors results in the activation of membrane associated Gαβγ-protein heterotrimer complexes, and represents the first step in the transduction of extracellular signals to modification of intracellular pathways. The first step in activation of receptor-mediated activation of Gαβγ-proteins heterotrimer is the exchange of Gα subunit bound guanosine diphoshpate (GDP) for guanosine triphosphate (GTP). The binding of GTP to the Gα subunit causes dissociation of the heterotrimer subunits, Gβ and Gγ, resulting in the modulation of several intracellular signaling cascades. Measurement of receptor-mediated G-protein activation can be measured using the non-hydrolyzable radiolabeled analog of GTP, GTP-γ-[35S]. Utilizing this methodology, antagonist affinity (Kb) is measured in membranes expressing cloned human ORL1/nociceptin receptors using a GTP-γ-[35S] binding assay according to previously described protocols with minor modifications (DeLapp et al., J Pharmacol Exp Ther. 1999 May; 289(2):946-55; Ozaki et al., Eur J Pharmacol. 2000 Aug. 18; 402(1-2):45-53). Assays are conducted in a 200-μl volume with the following buffer composition: 100 mM NaCl, 20 mM HEPES, 5 mM MgCl2, 1 mM EDTA, 0.1% BSA, 3 μM GDP, 0.5 nM [^35S]GTPγS. ORL1 receptor membrane suspension is added at a concentration of 20 μg protein per well and receptor stimulation is achieved using 300 nM nociceptin/OFQ. Wheat germ agglutinin coated SPA beads (Amersham, Arlington Hts., IL) are added at 1 mg per well to detect membrane-bound [^35S]GTPγS. Plates are sealed and incubated for 2 hr. at room temperature. Plates are then placed at 4° C. overnight to allow the SPA beads to settle and then counted in a Wallac Microbeta. Specific [^35S]GTPγS binding is determined as the difference in CPM observed in the absence and presence of 10 μM unlabeled GTPγS. Data are plotted as the percent of specific [^35S]GTPγS bound. Curves are plotted as the percent of specific binding and IC50 values are determined using a sigmoidal dose response curve with variable slope. […]

5-HT6 = 5-HT6 (Homo sapiens, UniProt P50406); test: Radioligand binding selectivity, 5-HT6
Source text: as §1

Chain of Adrenergic Beta1 (P08588 whole entry): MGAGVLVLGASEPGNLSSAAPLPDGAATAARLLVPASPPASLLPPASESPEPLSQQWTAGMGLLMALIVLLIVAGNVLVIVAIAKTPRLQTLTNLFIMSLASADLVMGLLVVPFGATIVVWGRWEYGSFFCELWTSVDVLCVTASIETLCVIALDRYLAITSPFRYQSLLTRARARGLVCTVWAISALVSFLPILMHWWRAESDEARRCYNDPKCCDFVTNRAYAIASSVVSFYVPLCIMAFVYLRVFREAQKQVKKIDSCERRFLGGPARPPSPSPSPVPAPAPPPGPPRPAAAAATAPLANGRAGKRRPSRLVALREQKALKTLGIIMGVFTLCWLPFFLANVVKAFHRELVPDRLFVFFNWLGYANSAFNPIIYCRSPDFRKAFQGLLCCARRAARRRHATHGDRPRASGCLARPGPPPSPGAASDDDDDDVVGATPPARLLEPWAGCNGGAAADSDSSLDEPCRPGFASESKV
T1 sequence (P41146 whole entry): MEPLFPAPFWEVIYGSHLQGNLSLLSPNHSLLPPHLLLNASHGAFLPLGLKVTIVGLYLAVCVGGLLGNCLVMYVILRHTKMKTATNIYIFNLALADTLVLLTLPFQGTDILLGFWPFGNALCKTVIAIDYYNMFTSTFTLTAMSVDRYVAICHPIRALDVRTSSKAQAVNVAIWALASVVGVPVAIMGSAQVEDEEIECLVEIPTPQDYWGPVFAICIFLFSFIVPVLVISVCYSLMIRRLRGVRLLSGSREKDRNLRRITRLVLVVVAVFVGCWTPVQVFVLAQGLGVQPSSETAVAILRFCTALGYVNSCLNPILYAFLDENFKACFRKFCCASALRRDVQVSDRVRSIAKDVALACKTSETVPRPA
Chain of 5-HT7 (P34969 whole entry, species assumed): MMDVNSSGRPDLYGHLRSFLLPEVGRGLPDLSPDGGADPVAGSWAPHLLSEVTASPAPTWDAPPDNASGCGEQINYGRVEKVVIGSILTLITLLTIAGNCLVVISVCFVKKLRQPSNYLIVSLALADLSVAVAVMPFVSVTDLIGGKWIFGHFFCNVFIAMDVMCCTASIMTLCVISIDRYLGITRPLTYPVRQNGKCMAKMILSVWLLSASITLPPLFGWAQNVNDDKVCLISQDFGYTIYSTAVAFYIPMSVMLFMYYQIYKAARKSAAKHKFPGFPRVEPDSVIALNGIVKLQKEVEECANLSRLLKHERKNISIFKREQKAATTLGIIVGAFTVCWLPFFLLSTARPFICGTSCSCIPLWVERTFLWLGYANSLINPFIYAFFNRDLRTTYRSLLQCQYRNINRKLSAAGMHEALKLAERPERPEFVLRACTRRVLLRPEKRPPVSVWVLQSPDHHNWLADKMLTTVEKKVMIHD
Chain of 5-HT6 (P50406 whole entry, species assumed): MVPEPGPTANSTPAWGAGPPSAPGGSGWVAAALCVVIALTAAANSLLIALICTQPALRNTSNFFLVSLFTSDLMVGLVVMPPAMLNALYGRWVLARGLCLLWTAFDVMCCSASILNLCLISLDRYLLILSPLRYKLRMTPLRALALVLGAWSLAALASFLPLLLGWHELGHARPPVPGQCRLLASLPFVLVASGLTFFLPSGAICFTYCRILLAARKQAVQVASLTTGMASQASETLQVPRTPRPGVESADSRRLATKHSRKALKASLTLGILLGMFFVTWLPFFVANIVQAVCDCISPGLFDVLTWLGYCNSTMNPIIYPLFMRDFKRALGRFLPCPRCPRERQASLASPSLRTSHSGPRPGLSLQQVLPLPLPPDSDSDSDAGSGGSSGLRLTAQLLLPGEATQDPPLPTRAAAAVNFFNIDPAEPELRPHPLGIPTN

Row | Structure (SMILES) | Ki [1] [µM] | Ki (Adrenergic Alpha2) [µM] | Ki (Adrenergic Beta1) [µM] | Ki (5-HT7; read-out: Ki 5-HT7) [µM] | effect on immobilization time ([2]; ORL-1 knockout mice) | effect on immobilization time ([2]; wild type mice) | Ki (Na+ channel) [µM] | Kb [3] [µM] | Ki (5-HT6) [µM] | Ki (5-HT7) [µM]
1 | Cc1nn(-c2ncccc2CO)cc1CN1CCC2(CC1)OCC(F)(F)c1cc(Cl)sc12 [Example 62, [2-[4-[(2-Chloro-4,4-difluoro-spiro[5H-thieno[2,3-c]pyran-7,4′-piperidine]-1′-yl)methyl]-3-methyl-pyrazol-1-yl]-3-pyridyl]methanol] | > 0.5 | > 5 | > 5 | > 3.98 | no effect | significantly reduce the immobilization time | 0.235 |  |  | 
2 | Cc1nn(-c2ncccc2Cn2cccn2)cc1CN1CCC2(CC1)OCC(F)(F)c1cc(Cl)sc12.O=C(O)C(O)C(O)C(=O)O [Example 23, 2-Chloro-4,4-difluoro-1′-[[3-methyl-1-[3-(pyrazol-1-ylmethyl)-2-pyridyl]pyrazol-4-yl]methyl]spiro[5H-thieno[2,3-c]pyran-7,4′-piperidine] (L)-Tartrate] |  |  |  |  |  |  |  | 0.00152 |  | 
3 | O=C(O)C(O)C(O)C(=O)O.OCc1nn(-c2ncccc2F)cc1CN1CCC2(CC1)OCC(F)(F)c1cc(Cl)sc12 [Example 53, [4-[(2-Chloro-4,4-difluoro-spiro[5H-thieno[2,3-c]pyran-7,4′-piperidine]-1′-yl)methyl]-1-(3-fluoro-2-pyridyl)pyrazol-3-yl]methanol (L)-Tartrate] | > 0.5 | > 5 | > 5 |  |  |  | > 0.5 | 0.00062 | > 5.83 | > 3.98
